Laboratory results taken from patent US7932239B2, “Methods of and compositions for reducing neuronal cell death” (Wisconsin Alumni Research Foundation, priority 2005, dated 2011).

Key:
[1] = system: retinal ganglion cells (RGCs); test: Viability of acutely axotomized retinal ganglion cells in culture (DAPI retrograde labeling, calcein-AM staining) at 72 hours; type: cell-based, rat; conditions: for rescue of RGCs (in words): at 100 μM
Description: DAPI binds to nuclear DNA and fluoresces under UV light. At postnatal days eleven to thirteen, the animals were sacrificed by decapitation, the eyes enucleated, and the retinas dissected in Hank's balanced salt solution (HBSS). After two incubations in enzyme solution containing papain (3.7 U/ml), each for 30 minutes at 37° C., the retinas were gently triturated with a Pasteur pipette and plated on poly-L-lysine-coated 96-well flat-bottomed tissue culture plates (0.32 cm^2 surface area/well) at a density of approximately 2000 cells/mm^2. The cells were cultured for 72 hours in Neurobasal-A, B27 supplement lacking antioxidants in a humidified 5% CO2 incubator at 37° C.
Retinal Ganglion Cell Identification and Counting: RGCs were identified by the presence of DAPI, which appears blue when viewed with appropriate filters under epifluorescence. Cell viability was determined by metabolism of calcein-AM, which produces a green fluorescence when viewed with fluorescein filters. Cells were incubated in a 1 μM solution of calcein-AM in phosphate-buffered saline (PBS) for 30 minutes, after which the medium was replaced with fresh PBS. Wells were counted in duplicate or in triplicate.
Statistical Analysis: All RGC viability calculations were normalized to the control (no treatment) condition by dividing the mean number of living RGCs in an experimental condition by the mean in controls. Comparisons were by unpaired t-test.

RGCs [2] = conditions: injected intravitreally into adult rats, previous studies; cited from earlier work
[3] = system: retinal ganglion cells (RGCs); conditions: previous studies, cited from earlier work
RGCs [4] = conditions: after one to twelve weeks; written in present tense
Description: Unilateral experimental glaucoma is induced in the rat using the Quigley protocol for laser ablation of the trabecular meshwork and of the circumferential episcleral vessels. […] The animals are anesthetized as in Example 2. A diode laser at 532 nm (0.2-0.4 watts and 0.3-0.7 second duration, depending on degree of pigmentation) is used to administer laser treatment at the trabecular meshwork and at the episcleral veins draining the perilimbal vessel plexus of vessel. In case a milder IOP rise is required, animals can be treated only at the trabecular meshwork. The laser treatment is repeated at 1 week if the IOP difference between the treated eye and the untreated eye is less than 6 mm Hg. Following laser treatment, sterile drug (i.e. PB1 or PB2) or control (BSS) is administered.
IOP is measured by putting a drop of 0.5% proparacaine in the eye, gently cradling the rat and touching the anesthetized eye with a Tonopen tonometer tip for a fraction of a second, usually for 3±2 times, more if the standard deviation is high. […] Depending on the experiment, the IOP is initially measured daily and then weekly.
After one to twelve weeks animals are sacrificed and RGC counts are performed as described in Example 2.

RGCs [5] = test: RGC death after optic nerve crush in vivo, intravitreal injection, RGC density in retinal whole mounts; parameters: species or system rat; conditions: 7 to 14 days after optic nerve crush, written in present tense
Description: Optic Nerve Crush Surgery and Intravitreal Injections: Surgeries are conducted on adult (i.e. eight to twelve week old) rats that have previously received 1,1′-dioctadecyl-3,3,3′,3′-tetramethylindocarbocyanine (DiI) injections. All surgeries are done aseptically and are performed on the left eye only. Animals are anesthetized with a mixture of ketamine and xylazine. A limited lateral canthotomy is performed. The conjunctiva is then incised at the limbus and the subtenons space bluntly dissected posteriorly. […] The muscle cone is then entered and the optic nerve exposed. A longitudinal incision is made along the meningeal sheath to expose the optic nerve axons and to avoid disturbing the retinal blood supply. The axons of the optic nerve are then crushed with blunt forceps for 5 seconds 2 mm posterior to the globe under direct visualization. […]
RGC Density Determination: Retinal wholemounts are imaged with an Axiocarn HRc digital camera attached to a Zeiss Axiophot fluorescent microscope. […] The density of RGCs/mm^2 is determined by counting labeled DiI cells in three areas per retinal quadrant at three different eccentricities of the retinal radius for a total of twelve regions per retina. Cells positive for both DiI and BSL-I, as determined by bright yellow labeling when DiI (red) and BSL-I (green) images are merged, are subtracted from the total DiI count. […]

[6] = at 1 μM and 100 μM, 72 hours, p<0.05

SMILES: O=C(O)c1ccccc1P(c1ccccc1)c1ccccc1 [2DPBA, 2-(diphenylphosphino)benzoic acid]
- relative RGC survival (compared to control) ([1]; 10 nM, 72 hours): 216±18%
- neuroprotection of RGCs (in words) [1, 6]: significant protection
- concentration at which neuroprotective for RGCs (lowest) ([1]; dose response, 72 hours): 10 nM

SMILES: O=C(O)c1ccc(P(c2ccccc2)c2ccccc2)cc1 [4DPBA, 4-(diphenylphosphino)benzoic acid]
- relative RGC survival (compared to control) ([1]; 1 μM, 72 hours): 183±19%
- neuroprotection of RGCs (in words) [1, 6]: neuroprotection

SMILES: O=S(=O)([O-])c1cccc(P(c2cccc(S(=O)(=O)[O-])c2)c2cccc(S(=O)(=O)[O-])c2)c1.[Na+].[Na+].[Na+] [3BSA, 3,3′,3″-phosphinidynetris(benzene-sulfonic acid) trisodium salt]
- relative RGC survival (compared to control) ([1]; 100 μM, 72 hours): 206±6%
- rescue of RGCs (in words) ([1]; 72 hours): rescue RGCs

SMILES: O=C(O)CCP(CCC(=O)O)CCC(=O)O [TCEP, tris-(2-carboxyethyl) phosphine]
- RGC death after optic nerve crush (in words) (RGCs [2]): inhibited RGC death
- effectiveness at nanomolar concentrations (in words) [3]: not effective
- concentration required for RGC neuroprotection [3]: ~100 µM
- rescue of RGCs (in words) ([1]; 72 hours): mildly rescued RGCs

SMILES: O[C@H](CS)[C@H](O)CS (racemic) [DTT, dithiothreitol]
- effectiveness at nanomolar concentrations (in words) [3]: not effective

SMILES: [BH3-][P+](CCC(=O)OC)(CCC(=O)OC)c1ccccc1 [PB1, bis(3-propionic acid methyl ester)phenylphosphine borane complex]
- RGC cell death compared to controls (in words) (RGCs [4]): attenuated
- RGC density compared to controls (in words) (RGCs [5]): greater RGC density
- relative RGC survival (compared to control) ([1]; 1 nM, 72 hours after axotomy): 174±12%
- neuroprotection of RGCs (in words) ([1]; at picomolar concentrations, 72 hours): highly effective
- concentration at which neuroprotective for RGCs (lowest) ([1]; dose response, 72 hours): ≥ 1 nM

SMILES: [BH3-][P+](CCC(=O)OC)(c1ccccc1)c1ccccc1 [PB2, (3-propionic acid methyl ester)diphenylphosphine borane complex]
- RGC cell death compared to controls (in words) (RGCs [4]): attenuated
- RGC density compared to controls (in words) (RGCs [5]): greater RGC density
- relative RGC survival (compared to control) ([1]; 10 pM, 72 hours after axotomy): 180±10%
- concentration at which neuroprotective for RGCs (lowest) ([1]; dose response 1 pM to 100 μM, 72 hours): ≥ 0.01 nM
